Measurements reported in article PMC7705112, “A Novel, Broad-Acting Peptide Inhibitor of Double-Stranded DNA Virus Gene Expression and Replication” (Frontiers in Microbiology, 2020).
Entries after “also recorded” stand apart in the source; their conditions may differ. Where two headings read alike, the source gives them in different places. Peptide text beside a SMILES is read from it.

How the values were obtained:
[1] = system: HSV-1 F, HSV-1 703, HSV-1 601; assay type: cell-based, herpes simplex virus; details: for EC50: Figure 8A, triplicate wells
Varicella zoster virus = experiment: VZV cytopathic effect; details: human fibroblasts, pre-treated, infected 1 h, three days, microscopy
HEK293 cells [2] = experiment: Cell viability, CellTiter-Glo 2.0; assay type: cell-based; details: 96 h incubation; Figure 2B, triplicate wells
Description: (§1) Vero, MRC-5, and CV-1 cells were cultured in Dulbecco’s Modified Eagle Medium (DMEM; ThermoFisher, Waltham, MA, United States) and Jurkat cells were cultured in RPMI 1640 medium containing 10% fetal calf serum, 100 U/ml penicillin, and 0.1 mg/ml streptomycin (ThermoFisher). HEK293 and NIH/3T3 cells were adapted to growth in CO2-independent medium supplemented with 10% fetal calf serum, 2 mM glutamine, and 1% antibiotic-antimycotic (ThermoFisher) and cultivated in a humidified atmosphere at 37°C. […] Viability was analyzed using CellTiter-Glo® 2.0 Assay according to the manufacturer’s protocol (Promega). […] Cytotoxicity was analyzed using MultiTox-Glo Multiplex Cytotoxicity Assay according to the manufacturer’s protocol (Promega).

Baculovirus-Luc = details: for EC50: read-out: EC50, inhibition of reporter gene expression
HEK293 cells [3] = experiment: Morphology of HEK293 cells; assay type: cell-based
adenovirus type 5 = assay type: cell-based
Description: Luciferase from cell lysates was recorded 24 hours after infection. Results shown are luciferase levels expressed as % of control from duplicate wells. Luciferase was detected using Luciferase Assay System as described in Materials & Methods of the main article.

adenovirus 5 = assay type: cell-based
NIH/3T3 cells = experiment: Cytotoxicity, MultiTox-Glo Multiplex; assay type: cell-based; details: 72 h; Figure 4B, triplicates
Description: as §1

VZV transcripts = VZV transcripts by real-time PCR; assay type: cell-based, varicella zoster virus; details: lysates of infected cells, normalized to GAPDH mRNA; Figure S8; read-out: EC50, reduction of VZV transcripts
Description: VZV transcripts were analysed from lysates of infected cells by real-time PCR using ViroReal® VZV (RTGM20V; Ingenetix GmbH, Austria) and normalized to GAPDH mRNA.

[4] = system: RSV RNA (nucleocapsid protein gene); experiment: RSV RNA by real-time PCR; assay type: cell-based, Respiratory syncytial virus
Description: Lysates from infected cells were examined for the presence of RSV RNA by real-time PCR using ViroReal® RSV (RTGM20V; Ingenetix GmbH, Austria) detecting the nucleocapsid protein gene of RSV and normalized to GAPDH mRNA. Calculated EC50 was 0.8 µM for TAT-I24 with 80% inhibition at the highest concentration (20 µM). Ribavirin was included as control.

[5] = system: vaccinia virus wild-type (strain Western Reserve); details: Figure 9B
GAPDH mRNA, MRC-5 cells = experiment: GAPDH mRNA in cells of the HCMV replicon assay; details: at the highest concentration of 20 μM; no effect below
adenovirus 4 = experiment: Replicon assay (AAV-GLuc-3B), A549 cells, adenovirus 4; assay type: cell-based; details: A549, MOI 1.0, at the concentrations used; Figures 3D, S3A
adenovirus 19a/64 = experiment: Replicon assay (AAV-GLuc-3B), A549 cells, adenovirus 19a/64; assay type: cell-based; details: A549, MOI 1.0, at the concentrations used; Figures 3D, S3A
murine CMV (MCMV) = assay type: cell-based, murine cytomegalovirus; details: NIH/3T3, MOI 0.5, 72 h; Figures 4A, S4A
Description: NIH/3T3 cells were seeded at a density of 2 × 10^4 cells/well of a 96-well plate and allowed to attach overnight. On the next day, medium was removed and replaced by medium containing peptide dilutions. Then, murine CMV (MCMV) expressing firefly luciferase ([Trilling et al., 2011]) was added to the cells at a MOI of 0.5 with aid of centrifugal enhancement at 800 × g for a total of 30 min.
Virus adsorption was performed by addition of MCMV expressing luciferase at a MOI of 0.5 with centrifugal enhancement at +4°C and further incubation at +4°C for 60 min before removal of unabsorbed virus and three times washing of cells with cold medium. […] After 72 h incubation at 37°C, luciferase levels were determined from cell lysates as described above.
In another setting, NIH/3T3 cells were preincubated with TAT-I24 at concentrations of 1 and 10 μM for 1, 3, and 6 h followed by removal of peptide and 3x washing with medium. […] After 72 h, luciferase levels were determined from cell lysates as described above.
A, NIH/3T3 cells were seeded at a density of 2 x 10^4 cells/well of a 96-well plate and treated on the next day with increasing concentrations of I24 or TAT-I24 and infected with MCMV (MOI = 0.5). After 72 hrs, luciferase was determined from cell lysates. Results shown are luciferase levels expressed as % of control from duplicate wells. […] Plaque formation was determined after 5 days. […]

MCMV S-mCherry-SCP = MCMV S-mCherry-SCP replication, microscopy; assay type: cell-based, murine cytomegalovirus; details: NIH/3T3, various concentrations, 72 h; Figure 4C
Description: For analysis of MCMV replication, NIH/3T3 cells were seeded at a density of 2 × 10^4 cells/well of ibiTreat eight-well chambers (ibidi, Germany). On the next day, cells were treated with peptides and infected with murine CMV S-mCherry-SCP ([Bosse et al., 2012]) at a MOI 0.2 for 72 h before fixation with 5% formaldehyde and staining of nuclei with DAPI. Microscopic examination was performed using a Live Cell Video Microscope (Leica Microsystems).

HCMV TB40 = experiment: Replicon assay (AAV-GLuc-3B), MRC-5 cells, HCMV; assay type: cell-based, human cytomegalovirus; details: MRC-5, 3 days; Figure 7A, TAT (48–60)
RSV (strain A2) = experiment: RSV cytopathic effect; assay type: cell-based, Respiratory syncytial virus A; details: human Hep2 cells, pre-treated, infected 2 hrs at 37°C, 3 days, microscopy
Description: Respiratory syncytial virus (RSV): Human Hep2 cells were pre-treated with peptides and infected with cell-free RSV Stock (strain A2) for 2 hrs at 37°C. Medium was then removed and unabsorbed virus removed by washing. Medium containing peptide dilutions was then added to cells.

influenza A PR8 = experiment: Influenza A plaque-formation assay; details: MDCK cells, three days, at the concentrations used
HSV-1 UL30 gene = experiment: HSV-1 UL30 transcripts by real-time PCR; details: cells from the replicon assay; Figures 8B, S6C
TZM-bl reporter cells = experiment: Reporter gene expression in non-infected TZM-bl cells; details: 48 hours after treatment; Figure S7
[6] = system: firefly luciferase reporter gene under control of the CMV promoter, HEK293 cells; experiment: Luciferase expression from transfected CMV promoter plasmid (Superfect); assay type: cell-based; details: HEK293, Figure 1D, TAT (47–57) alone
Description: Briefly, for one well of a 48-well plate, 100 ng DNA and 1 μl Superfect reagent were mixed by pipetting followed by addition of 12.5 μl of serum‐ and antibiotic-free medium. After brief vortexing and further incubation at room temperature for 15 min, 112.5 μl medium containing 10% fetal calf serum and antibiotics were added. For transfection in the presence of peptides, a transfection mixture of DNA, Superfect reagent, and serum-and antibiotic-free medium were prepared for the required number of wells. From this mixture, 25 μl aliquots were made and 0.5 μl peptides (10 mM each) added to each aliquot, vortexed briefly, and incubated for 15 min at room temperature. Then, 225 μl of medium containing 10% fetal calf serum was added and 125 μl applied per well of duplicate wells. For other types of multi-well plates, volumes were adapted according to the growth area of the wells.

Molecule: Nc1nc2c(ncn2COCCO)c(=O)[nH]1 [ACV, aciclovir]
- sensitivity of isolate to aciclovir ([1]; HSV-1 isolate 703, Figure S6A): resistance
- CPE (Varicella zoster virus): 4 µM

Molecule: CC(C)C[C@H](NC(=O)[C@@H](N)CS)C(=O)N[C@@H](C)C(=O)N[C@@H](Cc1ccccc1)C(=O)N[C@@H](Cc1ccc(O)cc1)C(=O)N[C@@H](C)C(=O)N[C@@H](CS)C(=O)N[C@@H](Cc1ccccc1)C(=O)N[C@@H](CS)C(=O)O [I24] (H-CLAFYACFC-OH)
- effects on HEK293 cell viability (HEK293 cells [2]): no effects

Molecule: CC(C)C[C@H](NC(=O)[C@H](CS)NC(=O)[C@H](Cc1ccc(O)cc1)NC(=O)[C@@H]1CCCN1C(=O)[C@H](CC(=O)O)NC(=O)[C@H](CCC(=O)O)NC(=O)[C@@H](NC(=O)[C@H](CCCCN)NC(=O)[C@H](CCCNC(=N)N)NC(=O)[C@H](CCCCN)NC(=O)[C@H](CCCCN)NC(=O)[C@H](CCCCN)NC(=O)[C@@H]1CCCN1)C(C)C)C(=O)N[C@@H](C)C(=O)N[C@@H](Cc1ccccc1)C(=O)N[C@@H](Cc1ccc(O)cc1)C(=O)N[C@@H](C)C(=O)N[C@@H](CS)C(=O)N[C@@H](Cc1ccccc1)C(=O)N[C@@H](CS)C(=O)O [SV40 NLS-I24] (H-PKKKRKVEDPYCLAFYACFC-OH)
- EC50 (Baculovirus-Luc; HEK293, Figure 2E, triplicate wells): 1000 nM

Molecule: CC(C)C[C@H](NC(=O)[C@H](CS)NC(=O)[C@H](CCC(N)=O)NC(=O)[C@@H]1CCCN1C(=O)[C@@H]1CCCN1C(=O)[C@H](CCCNC(=N)N)NC(=O)[C@H](CCCNC(=N)N)NC(=O)[C@H](CCCNC(=N)N)NC(=O)[C@H](CCC(N)=O)NC(=O)[C@H](CCCNC(=N)N)NC(=O)[C@H](CCCNC(=N)N)NC(=O)[C@H](CCCCN)NC(=O)[C@H](CCCCN)NC(=O)[C@H](CCCNC(=N)N)NC(=O)CN)C(=O)N[C@@H](C)C(=O)N[C@@H](Cc1ccccc1)C(=O)N[C@@H](Cc1ccc(O)cc1)C(=O)N[C@@H](C)C(=O)N[C@@H](CS)C(=O)N[C@@H](Cc1ccccc1)C(=O)N[C@@H](CS)C(=O)O [TAT-I24] (H-GRKKRRQRRRPPQCLAFYACFC-OH)
- effects on HEK293 cell viability (HEK293 cells [2]): no effects
- concentrations at which some morphological changes were observed (HEK293 cells [3]): > 10 μM
- EC50 (adenovirus type 5; HEK293, adenovirus-GFP-Luc, 24 h, single value of Figure 3A (duplicate wells), read-out: EC50, inhibition of reporter gene expression): 3140 nM
- EC50 (adenovirus 5; A549, MOI 1.0, Gaussia luciferase after 24 h, Figure 3D, triplicate wells, read-out: EC50, inhibition of replication): 3250 nM
- cytotoxic effects (viable and dead cells) (NIH/3T3 cells): No cytotoxic effects
- EC50 ([1]; HSV1 601 (aciclovir-sensitive isolate)): 370 nM
- EC50 ([1]; HSV1 703 (aciclovir-resistant isolate)): 910 nM
- EC50 ([1]; HSV-1 F): 1930 nM
- EC50 (VZV transcripts): 3300 nM
- inhibition of RSV RNA ([4]; at the highest concentration (20 µM)): 80%
- EC50 ([4]; lysates from infected cells, normalized to GAPDH mRNA, Figure S9): 800 nM
- inhibition of reporter gene expression (Baculovirus-Luc; HEK293, peptide added together with baculovirus, 24 h, Figure 2A): > 95%
- EC50 (Baculovirus-Luc; HEK293, MOI 5, peptide added together with baculovirus, 24 h, Figure 2A, duplicate wells): 170 nM
- EC50 ([5]; read-out: EC50, inhibition of VACV wt replication, CV-1, MOI 0.2, 1 h preincubation, 24 h, TCID50, two independent experiments): 790 nM
- effect on mock infected CV-1 cells (CV-1 cells): No effect
- effects on CV-1 cell attachment (CV-1 cells; at higher dosages (20 and 6.6 μM)): some effects
- GAPDH mRNA levels (GAPDH mRNA, MRC-5 cells): some reduction

Molecule: GRKKRRQRRRPPQ [TAT]
- effects on HEK293 cell viability (HEK293 cells [2]): no effects
- effect on reporter gene expression (adenovirus type 5; HEK293, 24 h, Figure 3A, TAT (48–60)): ineffective
- effect on replication (adenovirus 5; A549, Figure S3A): no effect
- effect on replication (adenovirus 4): no effect
- effect on replication (adenovirus 19a/64): no effect
- effect on luciferase expression (murine CMV (MCMV)): only partially decreased
- cytotoxic effects (viable and dead cells) (NIH/3T3 cells): No cytotoxic effects
- cells producing virus particles (MCMV S-mCherry-SCP): cells producing virus particles were seen
- effect on HCMV replication (HCMV TB40): no effect
- CPE (RSV (strain A2)): no inhibition
- effect on VACV wt replication ([5]; CV-1): no effect
- CPE (Varicella zoster virus): no inhibition
- Plaque assay (influenza A PR8): no inhibition
- UL30 transcript levels normalized to 18S rRNA (HSV-1 UL30 gene): No effect; also recorded: does not affect
- effect on reporter gene expression in the absence of virus (TZM-bl reporter cells): No inhibition

Molecule: YGRKKRRQRRR [TAT (47–57)]
- effect on reporter gene expression [6]: ineffective
- effect on luciferase levels (Baculovirus-Luc; HEK293, 24 h, Figure 2A (TAT = TAT (47–57))): did not affect

Molecule: YGRKKRRQRRRC [TAT-C]
- inhibition of luciferase expression (Baculovirus-Luc; HEK293, at the highest tested concentration of 20 μM, Figure 2E): only partial inhibition
